In PubChem BioAssay AID493010 (Sanford-Burnham Center for Chemical Genomics, 2011):

Each compound was assayed on 1x PBS pH 7.4 stability, LC/MS/MS, 48 h RT (assay: percent parent left in PBS – biochemical, 1x PBS, pH 7.4, ADME assay (AID 493010)). Conditions: stronger effect = lower value.

percent remaining [%]	Compound
108	CC(C)(C)c1ccc(C(=O)Nc2cc(Cl)c(Br)cc2C(=O)O)cc1
10.6	COc1cccc(C2=NN(c3ccc(S(N)(=O)=O)cc3)C(c3ccc(Br)cc3)C2)c1 (centres undefined)
124	CC(C)(C)c1ccc(C(=O)Nc2cc(Cl)c(Cl)cc2C(=O)O)cc1
27	COc1ccc(C2CC(c3ccccc3)=NN2c2ccc(S(N)(=O)=O)cc2)cc1 (centres undefined)
